Results taken from patent US7351722B2, “Use of Mangafodipir for treating oxidative stress effects” (Universite Rene Descartes (Paris V), priority 2001, dated 2008).
Like-named read-outs stand apart in the source and are kept apart here.

Key:
[1] = system: acetaminophen-induced acute hepatic failure; conditions: mice given acetaminophen
From the text: In each of the groups, the livers of several animals were removed in order to perform a histological study.

[2] = Procedure: The SOD activity of a chemical compound can be determined by the NBT (nitro blue tetrazolium) reduction method according to the technique described by Beauchamp and Fridovich [Anal. Biochem., 44(1), 276-87, (1971)].
The test is carried out at 25° C. in a final volume of buffer of 0.8 ml (50 mM TRIS/HCl, pH 7.6), containing 22 μM of xanthine, 500 U/ml of catalase and 0.2 U/ml of xanthine oxidase. The reduction of NBT, in the presence of 1.5 μg of Mangafodipir or, as a control, in the absence of Mangafodipir, is measured every 30 seconds for 5 minutes. One SOD unit (U SOD) is defined by the amount of enzyme capable of inhibiting the NBT reduction rate by 50%.

[3] = system: acetaminophen-induced acute hepatic failure; conditions: for survival rate: 24 hours after APAP 1000 mg/kg; for number of surviving animals: n = 12
Procedure: Intraperitoneal injection of acetaminophen into mice induces severe hepatotoxicity, the degree of which can be evaluated by animal survival and macroscopic and microscopic examination of the livers.
The Mangafodipir (marketed under the name […]™ by Nicomed-Amersham) is administered in the form of a bolus, intraperitoneally.
The acetaminophen (APAP), in solution at 100 mg/ml in PBS, at pH 7.4, is administered intraperitoneally.
In a first series of experiments, one group of mice was given a dose of 1000 mg/kg of acetaminophen; a second group was given a dose of 1000 mg/kg of acetaminophen, and a dose of 10 mg/kg of Mangafodipir administered either 2 h before the acetaminophen, or 6 h after; a control group was given Mangafodipir alone (10 mg/kg), or PBS alone.
Animal survival was monitored for 24 hours after the administration of acetaminophen.

[4] = 75.7 μg of Mangafodipir, 10 mM H2O2, pH 7.4
Procedure: The catalase activity was assayed according to the method described by AEBI [Methods Enzymol., 105, 121-126, (1984)]. The decrease in optical density (OD) at 240 nm of a solution of 10 mM H2O2 in phosphate buffer (50 mM of Na2HPO4/KH2PO4, 0.1 mM EDTA, pH 7.4) was measured in the presence of 75.7 μg of Mangafodipir or, by way of reference, in the presence of 1 unit of bovine catalase.

[5] = system: Hep 3B human hepatic cell line; conditions: 62.5, 125, 250 μg/ml, 1 h before H2O2, MTT after 12 h
Procedure: The Hep 3B human hepatic cell line was also used for these experiments.
(§1) The cells were seeded in a 96-well culture plate, in a proportion of 5×10^4 cells per well, in a final volume of 50 μl.
One hundred μl of Mangafodipir solution at various concentrations (62.5, 125, 250 μg/ml) were deposited into each well (three wells per concentration tested). After incubation for one hour, 50 μl of a solution of H2O2 at 4 mM were deposited into each well.

[6] = system: acetaminophen-induced acute hepatic failure; assay: Animal survival in acetaminophen-induced acute hepatic failure, comparison of Mangafodipir, MnTBAP and CuDIPS (Example 7); format: in vivo, mice; conditions: for number of surviving animals: 10 mg/kg bolus 2 h before 1000 mg/kg APAP, n = 12
Procedure: The Mangafodipir, the MnTBAP or the CuDIPS are administered in the form of a bolus, in the preventive capacity, 2 hours before the acetaminophen.
Animal survival is monitored for 24 hours after the administration of acetaminophen.

[7] = system: acetaminophen-induced acute hepatic failure; conditions: 500 mg/kg APAP, ASAT after 12 hours
Procedure: In a second series of experiments, one group of mice was given a dose of 500 mg/kg of acetaminophen; a second group was given the same dose of acetaminophen, and a dose of 10 mg/kg of Mangafodipir administered 2 h before the acetaminophen; a third group of animals was given the same dose of acetaminophen, and a dose of 10 mg/kg of MnTBAP, and a fourth group of animals was given the same dose of acetaminophen, and a dose of 10 mg/kg of CuDIPS. The ASAT serum transaminases are assayed 12 hours after the administration of acetaminophen.

[8] = system: Hep 3B human hepatic cell line; conditions: 62.5, 125, 250 μg/ml, 1 h before X/XO, MTT after 12 h
Procedure: as §1
One hundred μl of Mangafodipir solution at various concentrations (62.5, 125, 250 μg/ml) were deposited into each well (three wells per concentration tested).

Substance: Manganese dipyridoxyl phosphate [Mangafodipir]
- apoptotic lesions in liver, treated versus not treated [1]: considerably fewer apoptotic lesions
- rate of reduction of NBT ([2]; 1.5 μg of Mangafodipir in reaction mixture, control 0.0302/minute): 0.01556 min⁻¹
- SOD activity ([2]; 1 U SOD inhibits NBT reduction rate by 50%): 680 U SOD per milligram of Mangafodipir
- survival rate ([3]; Mangafodipir after acetaminophen (curative protocol)): greater than 41%
- survival rate ([3]; Mangafodipir before acetaminophen (preventive protocol)): about 66%
- number of surviving animals ([3]; Group III preventive, 10 mg/kg i.p. 2 h before 1000 mg/kg APAP, time 0 h): 12
- number of surviving animals ([3]; Group III preventive, 10 mg/kg i.p. 2 h before 1000 mg/kg APAP, time 6 h): 12
- number of surviving animals ([3]; Group III preventive, 10 mg/kg i.p. 2 h before 1000 mg/kg APAP, time 8 h): 12
- number of surviving animals ([3]; Group III preventive, 10 mg/kg i.p. 2 h before 1000 mg/kg APAP, time 9 h): 12
- number of surviving animals ([3]; Group III preventive, 10 mg/kg i.p. 2 h before 1000 mg/kg APAP, time 10 h): 11
- number of surviving animals ([3]; Group III preventive, 10 mg/kg i.p. 2 h before 1000 mg/kg APAP, time 11 h): 11
- number of surviving animals ([3]; Group III preventive, 10 mg/kg i.p. 2 h before 1000 mg/kg APAP, time 12 h): 11
- number of surviving animals ([3]; Group III preventive, 10 mg/kg i.p. 2 h before 1000 mg/kg APAP, time 13 h): 10
- number of surviving animals ([3]; Group III preventive, 10 mg/kg i.p. 2 h before 1000 mg/kg APAP, time 14 h): 10
- number of surviving animals ([3]; Group III preventive, 10 mg/kg i.p. 2 h before 1000 mg/kg APAP, time 15 h): 10
- number of surviving animals ([3]; Group III preventive, 10 mg/kg i.p. 2 h before 1000 mg/kg APAP, time 16 h): 9
- number of surviving animals ([3]; Group III preventive, 10 mg/kg i.p. 2 h before 1000 mg/kg APAP, time 17 h): 9
- number of surviving animals ([3]; Group III preventive, 10 mg/kg i.p. 2 h before 1000 mg/kg APAP, time 18 h): 9
- number of surviving animals ([3]; Group III preventive, 10 mg/kg i.p. 2 h before 1000 mg/kg APAP, time 20 h): 9
- number of surviving animals ([3]; Group III preventive, 10 mg/kg i.p. 2 h before 1000 mg/kg APAP, time 22 h): 8
- number of surviving animals ([3]; Group III preventive, 10 mg/kg i.p. 2 h before 1000 mg/kg APAP, time 24 h): 8
- number of surviving animals ([3]; Group IV curative, 10 mg/kg i.p. 6 h after 1000 mg/kg APAP, time 0 h): 12
- number of surviving animals ([3]; Group IV curative, 10 mg/kg i.p. 6 h after 1000 mg/kg APAP, time 6 h): 12
- number of surviving animals ([3]; Group IV curative, 10 mg/kg i.p. 6 h after 1000 mg/kg APAP, time 8 h): 11
- number of surviving animals ([3]; Group IV curative, 10 mg/kg i.p. 6 h after 1000 mg/kg APAP, time 9 h): 11
- number of surviving animals ([3]; Group IV curative, 10 mg/kg i.p. 6 h after 1000 mg/kg APAP, time 10 h): 10
- number of surviving animals ([3]; Group IV curative, 10 mg/kg i.p. 6 h after 1000 mg/kg APAP, time 11 h): 9
- number of surviving animals ([3]; Group IV curative, 10 mg/kg i.p. 6 h after 1000 mg/kg APAP, time 12 h): 9
- number of surviving animals ([3]; Group IV curative, 10 mg/kg i.p. 6 h after 1000 mg/kg APAP, time 13 h): 8
- number of surviving animals ([3]; Group IV curative, 10 mg/kg i.p. 6 h after 1000 mg/kg APAP, time 14 h): 8
- number of surviving animals ([3]; Group IV curative, 10 mg/kg i.p. 6 h after 1000 mg/kg APAP, time 15 h): 8
- number of surviving animals ([3]; Group IV curative, 10 mg/kg i.p. 6 h after 1000 mg/kg APAP, time 16 h): 7
- number of surviving animals ([3]; Group IV curative, 10 mg/kg i.p. 6 h after 1000 mg/kg APAP, time 17 h): 7
- number of surviving animals ([3]; Group IV curative, 10 mg/kg i.p. 6 h after 1000 mg/kg APAP, time 18 h): 7
- number of surviving animals ([3]; Group IV curative, 10 mg/kg i.p. 6 h after 1000 mg/kg APAP, time 20 h): 6
- number of surviving animals ([3]; Group IV curative, 10 mg/kg i.p. 6 h after 1000 mg/kg APAP, time 22 h): 6
- number of surviving animals ([3]; Group IV curative, 10 mg/kg i.p. 6 h after 1000 mg/kg APAP, time 24 h): 5
- catalase activity [4]: 2 U catalase per milligram of Mangafodipir
- mortality of hepatic cells under hydrogen peroxide-mediated oxidative stress [5]: prevents the mortality of hepatic cells
- number of surviving animals ([6]; time 0 h): 12
- number of surviving animals ([6]; time 6 h): 12
- number of surviving animals ([6]; time 8 h): 12
- number of surviving animals ([6]; time 9 h): 12
- number of surviving animals ([6]; time 10 h): 11
- number of surviving animals ([6]; time 11 h): 11
- number of surviving animals ([6]; time 12 h): 11
- number of surviving animals ([6]; time 13 h): 10
- number of surviving animals ([6]; time 14 h): 10
- number of surviving animals ([6]; time 15 h): 10
- number of surviving animals ([6]; time 16 h): 9
- number of surviving animals ([6]; time 17 h): 9
- number of surviving animals ([6]; time 18 h): 9
- number of surviving animals ([6]; time 20 h): 9
- number of surviving animals ([6]; time 22 h): 8
- number of surviving animals ([6]; time 24 h): 8
- effect on survival rate ([6]; 10 mg/kg preventively, 1000 mg/kg APAP, 24 h): increases the survival rate in a manner at least equal to the MnTBAP
- transaminase activities, APAP500 alone relative to Mangafodipir pretreatment ([7]; 10 mg/kg 2 h before): 10 times
- effect on transaminase activities ([7]; 10 mg/kg): decreases the transaminase activities
- mortality of hepatic cells under superoxide anion-mediated oxidative stress [8]: prevents the mortality of hepatic cells
